Measurements published in patent US7723091B2 (priority 1999, dated 2010).
Several values for one entry are separate records, joined by “and”; a condition that tells them apart may be missing. Equal entries are not always repeated. Where two headings read alike, the source gives them in different places. Marks after values point to notes of the source that are not given here.

Assays:
[1] = test system: E. acervulina, E. maxima and Clostridium perfringens; type: in vivo, broiler chickens; conditions: infected
[2] = test system: E. acervulina, E. maxima, and C. perfringens; type: in vivo, broiler chickens; conditions: Trial III; infected; no PI-PLC (T4 mannanase 100 MU/ton; T9 salinomycin 60 g/ton+BMD 50 g/ton)
[3] = test system: Eimeria acervulina sporozoites; assay: In vitro invasion of BHK cells by Eimeria acervulina sporozoites; type: cell-based; conditions: B. cereus PI-PLC 0.0403 U/mL, recombinant 0.261 U/mL
Method: (§1) Eineria acervulina sporozoites or Eimeria tenella sporozoites and cultured baby hamster kidney (BHK) cells were prepared by published methods. See Augustine, Avian and Poultry Biology Reviews 1:113-122, 2000. For cell pretreatment, cell cultures were overlaid with dilutions of enzymes as described in Table 11, and examined for morphological changes from 5 to 45 min post overlay. After 45 minutes, the monolayer cultures were washed twice, then inoculated with untreated E. acervulina or E. tenella sporozoites. For application during infection, sporozoites were suspended in the appropriate dilution of the enzyme and inoculated immediately into the cell cultures. After 45 minutes incubation, cultures were fixed, stained, and the invasion was quantified.
(§2) Observations were made looking for changes in gross morphology of sporozoites or cells due to enzyme treatment. At the enzyme levels used in these experiments, no morphological change was noted. The sporozoite invasion of the cultured cells was measured after the two methods of enzyme treatment, as well as without enzyme treatment, by histological staining and microscopy procedures. See Augustine, supra.

[4] = test system: Eimeria tenella sporozoites; assay: In vitro invasion of BHK cells by Eimeria tenella sporozoites; type: cell-based; conditions: B. cereus PI-PLC 0.0403 U/mL, recombinant 0.261 U/mL
Method: as §1, §2

E. coli MG1655 = assay: Cylinder plate assay for antibiotic activity; type: cell-based; conditions: E. coli MG1655 testing strain
Method: Fermentation with Bacillus cereus (ATCC 7004) was conducted according to the method described in EXAMPLE 2 except that the initial volume was increased to 20 liters. A test for the presence of antibiotic was conducted with E. coli MG1655 as the testing strain with final fermentation broth or partially purified PI-PLC prepared according to the method described in EXAMPLES 3-5. The test was conducted as a.cylinder plate assay. See Brantner, Pharmazie 52(1):34-40, 1997.

[5] = test system: Eimeria acervulina and Clostridium perfringens; type: in vivo, broiler chickens; conditions: Trial I
[6] = test system: E. acervulina and Clostridium perfringens; type: in vivo, broiler chickens
[7] = Trial IV, PI-PLC 30 U/lb, Man. 121 MU/ton, BMD 50 g/ton, salinomycin 60 g/ton
[8] = Trial IV Test 13, Man. 5x at 506 MU/ton
[9] = Cell Pretreatment with Enzyme Followed by Wash, Test 1, mannanase 5100 U/mL
[10] = Cell Pretreatment with Enzyme Followed by Wash, Test 2, mannanase 5100 U/mL
[11] = mean of 4 replicates, infected, PI-PLC 0.34 g/ton pure basis (T3, T4) or Sacox 60 g/ton + BMD-50 50 g/ton (T2) in feed
[12] = single replicate (cage) values, infected, PI-PLC 0.34 g/ton pure basis (T3, T4) or Sacox 60 g/ton + BMD-50 50 g/ton (T2) in feed
[13] = Trial II T4 (Rec), T7 (Wt), infected, 10 U/lb
[14] = Application of Enzyme During Infection, Test 2, listed as PI-PLC from B. cereus
[15] = Cell Pretreatment with Enzyme Followed by Wash, Test 1, mannanase 5100 U/mL, listed as PI-PLC from B. cereus
[16] = Cell Pretreatment with Enzyme Followed by Wash, Test 2, mannanase 5100 U/mL, listed as PI-PLC from B. cereus

CC[C@@H](C(=O)[C@@H](C)[C@@H](O)[C@H](C)[C@@H]1O[C@@H]([C@@H](CC)C(=O)O)CC[C@@H]1C)[C@H]1O[C@]2(C=C[C@@H](O)[C@]3(CC[C@@](C)([C@H]4CC[C@](O)(CC)[C@H](C)O4)O3)O2)[C@H](C)C[C@@H]1C [S, Salinomycin, reference compound]
Feed Conversion Day 0-21 [1, 7]: 1.709
Feed Conversion Day 8-21 [1, 7]: 1.719
Lesion Score E. acer. Upper [1, 7]: 1.00
Lesion Score E. max. Middle [1, 7]: 1.09
Live Weight Day 21 [1, 7]: 0.496
Weight Gain Day 0-21 [1, 7]: 0.458
Weight Gain Day 8-21 [1, 7]: 0.368

Bacitracin methylene disalicylate [reference compound]
Feed Conversion Day 0-21 [1, 7]: 1.707
Feed Conversion Day 8-21 [1, 7]: 1.770
Lesion Score E. acer. Upper [1, 7]: 2.25
Lesion Score E. max. Middle [1, 7]: 1.94
Live Weight Day 21 [1, 7]: 0.490
Weight Gain Day 0-21 [1, 7]: 0.453
Weight Gain Day 8-21 [1, 7]: 0.352

endo-1,4- -D-mannanase [β-mannanase]
Feed Consumption Day 0-21 [2]: 10.787^abc
Feed Consumption Day 8-21 [2]: 8.435^abc
Feed Conversion Day 0-21 [2]: 1.501^cd
Feed Conversion Day 8-21 [2]: 1.536^c
Lesion Scores E. acer. [2]: 1.16^ab
Lesion Scores E. max. [2]: 1.44^ab
Live Wt. Day 21 [2]: 0.652^bc
Weight AF/G Treatment (weight adjusted feed conversion) [2]: 1.465
Weight Gain Day 0-21 [2]: 0.611^bc
Weight Gain Day 8-21 [2]: 0.490^b
Feed Conversion Day 0-21 [1, 8]: 1.740
Feed Conversion Day 8-21 [1, 8]: 1.813
Lesion Score E. acer. Upper [1, 8]: 2.13
Lesion Score E. max. Middle [1, 8]: 2.00
Live Weight Day 21 [1, 8]: 0.471
Weight Gain Day 0-21 [1, 8]: 0.437
Weight Gain Day 8-21 [1, 8]: 0.339
Feed Conversion Day 0-21 [1, 7]: 1.803
Feed Conversion Day 8-21 [1, 7]: 1.849
Lesion Score E. acer. Upper [1, 7]: 1.94
Lesion Score E. max. Middle [1, 7]: 1.34
Live Weight Day 21 [1, 7]: 0.483
Weight Gain Day 0-21 [1, 7]: 0.433
Weight Gain Day 8-21 [1, 7]: 0.338
Invasion counts (mean ± standard error of the mean) [3, 9]: 16 ± 1^b
Invasion counts (mean ± standard error of the mean) [3, 10]: 29 ± 2^ab
Invasion counts (mean ± standard error of the mean) ([4]; Application of Enzyme During Infection, Test 1, mannanase 5100 U/mL): 46 ± 6^ab
Invasion counts (mean ± standard error of the mean) [4, 9]: 35 ± 1^b
Invasion counts (mean ± standard error of the mean) [4, 10]: 19 ± 5^a

phosphatidylinositol specific phospholipase C [Wild type PI-PLC]
clearing zone indicating antibiotic activity (E. coli MG1655): No clearing zone
performance compared with the Salinomycin+BMD treatment ([5]; by all criteria (Tables 4-5)): worked as well as or better than the Salinomycin+BMD treatment
Average Body Weight at 21 Days, Mean [5, 11]: 378.71 g and 373.14 g
Average Feed Conversion (0-21 days) Corrected for Weight of Mortality Birds, Mean [5, 11]: 1.425 and 1.419
Average Body Weight at 21 Days [5, 12]: 377.83 g and 366.67 g and 383.83 g and 361.17 g and 378.83 g and 361.33 g and 374.33 g and 403.40 g
Average Feed Conversion (0-21 days) Corrected for Weight of Mortality Birds [5, 12]: 1.438 and 1.404 and 1.407 and 1.445 and 1.423 and 1.421 and 1.432 and 1.406
8-21 Day Feed Conversion (Corrected) [6, 13]: 1.876
8-21 Day Weight Gain [6, 13]: 298.98
Average Intestinal Lesion Score [6, 13]: 1.267
effectiveness compared with recombinant counterpart ([6]; Trial II, same concentration (10 U/lb)): did not work as effectively as its recombinant counterpart
Invasion counts (mean ± standard error of the mean) ([3]; Application of Enzyme During Infection, Test 1, listed as PI-PLC from B. cereus): 33 ± 3^b
Invasion counts (mean ± standard error of the mean) [3, 14]: 25 ± 2^ab
Invasion counts (mean ± standard error of the mean) [3, 15]: 15 ± 1^b
Invasion counts (mean ± standard error of the mean) [3, 16]: 26 ± 1^ab
Invasion counts (mean ± standard error of the mean) ([4]; Application of Enzyme During Infection, Test 1, mannanase 5100 U/mL, listed as PI-PLC from B. cereus): 52 ± 13^ab
Invasion counts (mean ± standard error of the mean) [4, 14]: 37 ± 2^ab
Invasion counts (mean ± standard error of the mean) [4, 15]: 38 ± 2^b
Invasion counts (mean ± standard error of the mean) [4, 16]: 21 ± 2^a
